Consider five compounds from PMC4048129 (Chemistry and physics of lipids, 2013).

In brackets after ≈: the same amount, converted by molar mass. Read-outs that look alike come from different tables or passages of the source. Bounds are passed on as bounds.

Series [1] concerns P. aeruginosa (ATCC 27853). Nature of the series: Microdilution susceptibility testing. The conditions noted are these: Pseudomonas aeruginosa; for MIC: ATCC27853. (In general: Dilution methods test growth across graded concentrations, often in twofold steps.)
Another series concerns E. coli (ATCC 25922). Nature of the series: Microdilution susceptibility testing. Conditions: Escherichia coli, ATCC25922.
The test system of series [2] is K. pneumoniae (ATCC 13883). As to the kind of experiment: Microdilution susceptibility testing. Conditions: Klebsiella pneumoniae; for MIC: ATCC13883; for IC50: ATCC13883, read-out: IC50 ± SEM.
For series [3], the system named is Gram-positive and Gram-negative bacteria. As to the kind of experiment: Antibacterial activity against the bacteria of Table 1. Conditions: for antibacterial activity: all bacteria presented in Table 1, result in words.
Series [4] concerns S. saprophyticus (ATCC 15305). Nature of the series: Microdilution susceptibility testing. Conditions: for MIC: 18-24 h; for IC50: ATCC15305, read-out: IC50 ± SEM.
The subject of the next series is S. aureus (ATCC 29213). Nature of the series: Microdilution susceptibility testing. The conditions noted are these: Staphylococcus aureus; for MIC: ATCC29213; for IC50: ATCC29213, read-out: IC50 ± SEM.
The test system of another series is B. cereus (ATCC 10876). As to the kind of experiment: Microdilution susceptibility testing. The conditions noted are these: Bacillus cereus; for MIC: ATCC10876; for IC50: ATCC10876, read-out: IC50 ± SEM.
Series [5] deals with CIMRSA 1. Nature of the series: Microdilution susceptibility testing. The conditions noted are these: Staphylococcus aureus; for IC50: read-out: IC50 ± SEM.
In another series the test system is MRSA ATCC 43300. Nature of the series: Microdilution susceptibility testing. Conditions: Staphylococcus aureus, ATCC43300|MRSA; for IC50: read-out: IC50 ± SEM.
In series [6] the test system is CIMRSA 1. As to the kind of experiment: Determination of bactericidal concentration. It counts as cell-based, Clinical isolate of methicillin-resistant S. aureus. The conditions noted are these: CIMRSA 1 and 2 (both strains, text summary).
A further series relates to CIMRSA 2. As to the kind of experiment: Microdilution susceptibility testing. The conditions noted are these: Staphylococcus aureus; for IC50: read-out: IC50 ± SEM.
Series [7] can be described thus: Cytotoxicity testing, MTT assay. In kind it is cell-based. The conditions noted are these: human, peripheral blood mononuclear cells (PBMC). On the technique in general: Tetrazolium assays rely on reduction of a dye to a coloured formazan, in cell work by metabolically active cells.
The test system of series [8] is Leishmania donovani amastigotes. The conditions noted are these: cited from earlier work.
Series [9] addresses L. donovani DNA topoisomerase IB enzyme (LdTopIB). Conditions: ref Carballeira et al., 2012; cited from earlier work.
For series [10], the system named is Mycobacterium tuberculosis. Conditions: ref Carballeira et al., 2006; cited from earlier work.
The test system of series [11] is Neisseria gonorrhoeae, Neisseria meningitidis, and Bacteroides fragilis. Conditions: N. gonorrhoeae, B. fragilis, ref Konthikamee et al., 1982; cited from earlier work.
Where [12] appears, read: Staphylococcus saprophyticus, ATCC15305, S. saprophyticus ATCC 15305, 37°C.

Take `CCCCCCCCCCCCCC#CCOC1CCCCO1` (stereo not drawn) [Compound 2-HDOTHP, 2-(2-Hexadecynyloxy)-tetrahydro-2H-pyran]: the MIC (in series [1]; against E. coli (ATCC 25922); in [2]; in series [4] (setting [12]); against S. aureus (ATCC 29213); in the series on B. cereus (ATCC 10876)) was above 1000 µg/mL each time. For the same compound, the antibacterial activity result in series [3] is “inactive”.
`CCCCCCCCCCCCCCCC#CCOC1CCCCO1` (stereo not drawn) [Compound 2-ODOTHP, 2-(2-Octadecynyloxy)-tetrahydro-2H-pyran]: the MIC (in [1]; in the series with E. coli (ATCC 25922); in series [2]; in series [4] (setting [12]); in the series with S. aureus (ATCC 29213); against B. cereus (ATCC 10876)) was above 1000 µg/mL in each case. The antibacterial activity result in series [3] is “inactive”.
One may read the IC50 as the concentration that inhibits the measured activity by half. For the compound `CCCCCCCCCCCCCCCC#CC(=O)O` [Compound 2-ODA, 2-Octadecynoic acid], the MIC was above 1000 µg/mL in series [1]; above 1000 µg/mL against E. coli (ATCC 25922); 7.8 µg/mL (≈ 27.8 µM) in series [2]; 7.8 µg/mL (≈ 27.8 µM) against CIMRSA 1 [5]; 7.8 µg/mL (≈ 27.8 µM) against MRSA ATCC 43300; 7.8 µg/mL (≈ 27.8 µM) against CIMRSA 2. The MIC is 125 µg/mL (≈ 446 µM) in [4] (setting [12]), 15.6 µg/mL (≈ 55.6 µM) with S. aureus (ATCC 29213) and 15.6 µg/mL (≈ 55.6 µM) in the series with B. cereus (ATCC 10876). Also, the IC50 in series [2] was 5.6 µg/mL (≈ 20 µM); with CIMRSA 1 [5], 4.3 µg/mL (≈ 15.3 µM); with MRSA ATCC 43300, 5.5 µg/mL (≈ 19.6 µM); in the series with CIMRSA 2, 5.5 µg/mL (≈ 19.6 µM); in series [4] (Staphylococcus saprophyticus) it was 68.8 µg/mL (≈ 245 µM); in the series on S. aureus (ATCC 29213), 8.1 µg/mL (≈ 28.9 µM). Further, the IC50 is 11 µM in series [8] (L. donovani, ref Carballeira et al., 2012); 11.9 µg/mL (≈ 42.4 µM) in the series on B. cereus (ATCC 10876); 5.3 µM in [9]. Also, the bactericidal concentration with CIMRSA 1 [6] was found to be 15.6 µg/mL. Moreover, the IC50 at 3 days in [7] stood at 58.9 ± 0.1 µg/mL (≈ 210 µM).
With `CCCCCCCCCCCCCC#CC(=O)O` [Compound 2-HDA, 2-hexadecynoic acid], the MIC in [1] is 125 µg/mL (≈ 495 µM); against E. coli (ATCC 25922), above 1000 µg/mL; in series [2] it was 7.8 µg/mL (≈ 30.9 µM); against CIMRSA 1 [5] it was 3.9 µg/mL (≈ 15.5 µM); against CIMRSA 1 [5] (MRSA) it was 3.9 µg/mL (≈ 15.5 µM); in series [3] (read-out: MICs), 7.8 to 125 µg/mL (≈ 30.9 to 495 µM). In addition, the MIC against MRSA ATCC 43300 worked out at 15.6 µg/mL (≈ 61.8 µM); against CIMRSA 2, 3.9 µg/mL (≈ 15.5 µM); in series [4] (S. saprophyticus ATCC 15305, 37°C) it was 15.6 µg/mL (≈ 61.8 µM); in series [4] (setting [12]), 15.5 µg/mL (≈ 61.4 µM); with S. aureus (ATCC 29213), 15.6 µg/mL (≈ 61.8 µM); against B. cereus (ATCC 10876), 31.3 µg/mL (≈ 124 µM). The IC50 turned out to be 87.8 µg/mL (≈ 348 µM) in series [1] (ATCC27853, read-out: IC50 ± SEM); 6.1 µg/mL (≈ 24.2 µM) in series [2]; 3.3 µg/mL (≈ 13.1 µM) in the series with CIMRSA 1 [5]; 9.4 µg/mL (≈ 37.2 µM) in the series on MRSA ATCC 43300; 3.4 µg/mL (≈ 13.5 µM) with CIMRSA 2; 8.8 µg/mL (≈ 34.9 µM) in [4] (Staphylococcus saprophyticus). In addition, the IC50 with S. aureus (ATCC 29213) was 6.2 µg/mL (≈ 24.6 µM); in series [8] (L. donovani amastigotes, ref Tasdemir et al., 2010), 17.8 µM; with B. cereus (ATCC 10876) it was 17.2 µg/mL (≈ 68.1 µM); in [9], 28.7 µM. Besides, the bactericidal concentration with CIMRSA 1 [6] is 7.8 µg/mL. The compound also had an IC50 at 3 days in [7] of 57.2 ± 0.1 µg/mL (≈ 227 µM). Besides, the “minimum inhibitory concentrations (MICs)” value in series [10] is 141 to 145 µM. In addition, the active concentrations in [11] was 5.0 to 21.4 µM.
With `CCCCCCCCCCCCCCCC#CCO` [Compound 2-ODOH, 2-Octadecyn-1-ol], the MIC (in [1]; in the series with E. coli (ATCC 25922); in series [2]; in series [4] (setting [12]); in the series on S. aureus (ATCC 29213); in the series on B. cereus (ATCC 10876)) was above 1000 µg/mL in each case.
